Data: ChEMBL document CHEMBL1121542, “Beta-adrenergic blocking agents. 20. (3-Hydroxyprop-1-enyl)-substituted 1-(aryloxy)-3-(alkylamino)propan-2-ols” (J Med Chem, 1980)
Active and inactive are the calls of the source. The calls are words filed in the database; no cut-off is given here.

Experiments:
Adrenergic receptor beta = assay: Compound was evaluated in vivo for beta-Adrenoceptor blocking potency in cat and is expressed as total dose, infused over a period of 30 minutes, causing 50% inhibition of the tachycardia (iv administration); NA means not active; format: functional, organism-based; conditions: Felis catus
[1] = target: Adrenergic receptor beta (Homo sapiens) (UniProt P08588+P07550+P13945); assay: Compound was evaluated in vivo for beta-Adrenoceptor blocking potency in cat measured as the degree (percent) of blockade of the vasopressor response at the dose level; format: functional, organism-based; conditions: Felis catus; target entry is the homologue from another species

Inhibition (Adrenergic receptor beta)	Inhibition [1]	SMILES
inactive	–	C=CCc1cc(/C=C/CO)ccc1OCC(O)CNC(C)(C)C (stereo not given)
inactive	–	COc1ccc(/C=C/CO)cc1OCC(O)CNC(C)C (stereo not given)
inactive	–	CC(C)NCC(O)COc1cc(/C=C/CO)ccc1Br (stereo not given)
inactive	–	CCOc1cc(/C=C/CO)ccc1OCC(O)CNC(C)C (stereo not given)
–	76%	CC(C)(C)NCC(O)COc1ccc(/C=C/CO)cc1Cl (stereo not given)
